The source of these data is patent publication US11882835B2, “Benzimidazole compound having an optionally halogenated alkylenedioxy group or salt thereof, agricultural and horticultural insecticide comprising the compound or the salt, and method for using the insecticide” (NIHON NOHYAKU CO., LTD., priority 2018, dated 2024).

One test concerns Plutella xylostella. Nature of the test: whole plant or invertebrate. The note with it: in Brassica rapa, 144 h, read-out: activity level (corrected mortality rate) of P. xylostella.
The subject of a further test is Laodelphax striatellus. Nature of the test: Insecticidal test on Laodelphax striatellus (rice seedling dip). The note with it: in Oryza sativa, 192 h, read-out: activity level (corrected mortality rate) of L. striatellus.
Another test has as its system Rhipicephalus sanguineus. Nature of the test: Assay for transdermal parasiticidal activity against nymphs of Rhipicephalus sanguineus. It counts as in vivo. The conditions noted are these: 48 h, read-out: mortality rate, nymphs of R. sanguineus. From the text:
Assay for Transdermal Parasiticidal Activity Against Nymphs of Rhipicephalus sanguineus
DMSO diluted solutions of various compounds of the present invention were individually diluted to the final concentration of 100 ppm with an acetone/triton solution and applied to the inside of vented sample bottles. After overnight drying, ten nymphs of R. sanguineus were introduced into each bottle, and the mortality rate was examined two days later. Aberrant adults were regarded as the dead.

Another test concerns Dirofilaria immitis. Description: Larval motility assay on Dirofilaria immitis. The conditions noted are these: 72 h, 3 days, relative to DMSO only, read-out: percent motility inhibition, D. immitis L1 stage larvae. Format: in vivo. The protocol:
Larval Motility Assay on Dirofilaria immitis
Five hundred L1 stage larvae of D. immitis were diluted in a predetermined conditioned medium and introduced into each well of a 96-well plate. DMSO diluted solutions of various compounds of the present invention were added at the final concentration of 50 ppm to the wells of the 96-well plate. The plate was allowed to stand for 3 days, and then larval motility was examined. The percent motility inhibition in the wells of each treatment was calculated relative to the wells of treatment with DMSO only.

A further test deals with Ctenocephalides felis. Description: Assay for oral parasiticidal activity against adults of Ctenocephalides felis. Format: in vivo. The note with it: read-out: mortality rate, adults of C. felis. The protocol: Assay for Oral Parasiticidal Activity Against Adults of Ctenocephalides felis
Newly-emerged adults of C. felis were placed into test cages (10 adults per test cage). DMSO diluted solutions of various compounds of the present invention were added to aliquots of bovine blood at the final concentration of 50 ppm and orally administered to the adults of C. felis using a feeder. The mortality rate was examined on the following day. Aberrant adults were regarded as the dead.

Another test relates to Haemonchus contortus. Description: Larval motility assay on Haemonchus contortus. Format: in vivo. The note with it: 96 h, 4 days, relative to DMSO only, read-out: percent motility inhibition, H. contortus L1 stage larvae. The procedure: Larval motility assay on Haemonchus contortus DMSO diluted solutions of various compounds of the present invention were added at the final concentration of 50 ppm to the wells of a 96-well plate containing a predetermined conditioned medium. Twenty L1 stage larvae of H. contortus were introduced into each well of the 96-well plate. The plate was allowed to stand for 4 days, and then larval motility was examined. The percent motility inhibition in the wells of each treatment was calculated relative to the wells of treatment with DMSO only.

As a reminder, the mortality is the share of the test organisms that died. Take `CCSc1cc(C2CC2)cnc1-c1nc2cc3c(cc2n1C)OC(F)(F)O3` [Compound 1-1, 6-(5-cyclopropyl-3-ethylthiopyridin-2-yl)-2,2-difluoro-5-me thyl-5H-[1,3]dioxolo[4′,5′:4,5]benzo[1,2-d]imidazole]: the mortality at 500 ppm with Plutella xylostella and in the test with Laodelphax striatellus was 100% throughout.
The term inhibition denotes the drop in the measured response relative to a control, in per cent. `CCS(=O)(=O)c1cc(C2CC2)cnc1-c1nc2cc3c(cc2n1C)OC(F)(F)O3` [Compound 1-3, 6-(5-cyclopropyl-3-ethylsulfonyl-pyridin-2-yl)-2,2-difluoro-5-methyl-5H-[1,3]dioxolo[4′,5′:4,5]benzo[1,2-d]imidazole]: the mortality at 500 ppm in the test with Plutella xylostella and with Laodelphax striatellus was 100% throughout. Further, in the test with Rhipicephalus sanguineus, the mortality at 100 ppm is not below 50%. The inhibition at 50 ppm with Dirofilaria immitis and in the test with Haemonchus contortus was not below 50% throughout. In addition, the mortality at 50 ppm with Ctenocephalides felis was not below 50%.
Turning to `CCSc1cc(C2CC2)cnc1-c1nc2cc3c(cc2n1C(F)F)OC(F)(F)O3` [Compound 1-7, 6-(5-cyclopropyl-3-ethylthiopyridin-2-yl)-2,2-difluoro-5-di fluoromethyl-5H-[1,3]dioxolo[4′,5′:4,5]benzo[1,2-d]imidazole], the mortality at 500 ppm in the test with Plutella xylostella was found to be 100%.
Same read-out and setting: with `CCS(=O)(=O)c1cc(C2CC2)cnc1-c1nc2cc3c(cc2n1C(F)F)OC(F)(F)O3` [Compound 1-9, 6-(5-cyclopropyl-3-ethylsulfonylpyridin-2-yl)-2,2-difluoro-5-difluoromethyl-5H-[1,3]dioxolo[4′,5′:4,5]benzo[1,2-d]imid azole] the figure was 100%.
